According to US20030036184A1 (priority 2000, published 2003):

How the values were obtained:
Test in all cases: PDE assay for IC50 measurements (SPA, cell lysate enzyme)
Assay type in all cases: biochemical
[1] = biological target: T1, recombinant full length PDE7A1 (Homo sapiens, UniProt Q13946); details: recombinant full length PDE7A1
T1 construct: the full length PDE7A1 protein (1-483); made in house; host or cells: CHO (EcRCHO) cells, transient transfection, cytosol/lysate supernatant; Sf21/baculovirus also described
T1 sequence (Q13946 whole entry): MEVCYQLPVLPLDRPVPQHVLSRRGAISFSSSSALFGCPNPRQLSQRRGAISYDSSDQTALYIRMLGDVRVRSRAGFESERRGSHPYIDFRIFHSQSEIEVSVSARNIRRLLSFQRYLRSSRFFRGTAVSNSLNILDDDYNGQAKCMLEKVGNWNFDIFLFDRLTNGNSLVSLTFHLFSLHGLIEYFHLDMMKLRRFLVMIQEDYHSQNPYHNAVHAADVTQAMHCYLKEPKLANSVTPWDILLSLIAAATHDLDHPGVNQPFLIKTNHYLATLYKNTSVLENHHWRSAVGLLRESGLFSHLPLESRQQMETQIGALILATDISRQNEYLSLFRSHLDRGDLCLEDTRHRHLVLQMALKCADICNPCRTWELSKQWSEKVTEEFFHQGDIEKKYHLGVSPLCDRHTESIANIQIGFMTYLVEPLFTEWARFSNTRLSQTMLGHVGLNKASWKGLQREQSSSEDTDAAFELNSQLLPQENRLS
Protocol: (§1) The cell lysates containing PDE7A1 (full length or the truncated forms) were used as enzyme source. PDE assays were performed in 96-well plates in a final volume of […] at pH 8 comprising: 2 μL of compound dissolved in DMSO at 8 different concentrations, 40 mM TRIS, 10 mM MgCl2, 50 nM [^3H]-cAMP (Amersham) and enzyme at the appropriate concentration. Plates were incubated for 10 min at 37° C. in a heater/shaker and stopped by addition of 20 μL Yttrium silicate beads (Scintillation Proximity Assay, Amersham). Enzyme activity was read on a Topcount reader (Packard). Substrate depletion never exceeded 15% of the initial amount. The given IC50s represent the concentration of compound leading to 50% inhibition of the cAMP hydrolysis versus control. They are calculated using a classical sigmoidal model with Hill slope fixed to 1.
(§2) The cell lysates containing recombinant PDE7A1 (full length or the truncated forms) were used as enzyme source. PDE assays were performed in 96-well plates in a final volume of 100 μL at pH 8 comprising: […] of compound dissolved in DMSO at 8 different concentrations, 40 mM TRIS, 10 mM MgCl2, 50 nM [^3H]-cAMP and enzyme at the appropriate concentration.
(§3) Plates were incubated for 10 min at 37° C. in a heater/shaker and stopped by addition of 20 μL Yttrium silicate beads (Scintillation Proximity Assay, Amersham).
(§4) Enzyme activity was determined by measuring the radioactivity on a Topcount reader (Packard).
(§5) Substrate depletion never exceeded 15% of the initial amount. The given IC50s represent the concentration of compound leading to 50% inhibition of the cAMP hydrolysis versus control. They are calculated using a classical sigmoidal model with Hill slope

PDE7(101-483) = biological target: T2, PDE7(101-483) (Homo sapiens, UniProt Q13946)
T2 construct: this catalytic fragment (101-482) fragment was co-expressed; made in house; host or cells: CHO (EcRCHO) cells, transient transfection; crude lysate supernatant
T2 sequence (Q13946 101-482): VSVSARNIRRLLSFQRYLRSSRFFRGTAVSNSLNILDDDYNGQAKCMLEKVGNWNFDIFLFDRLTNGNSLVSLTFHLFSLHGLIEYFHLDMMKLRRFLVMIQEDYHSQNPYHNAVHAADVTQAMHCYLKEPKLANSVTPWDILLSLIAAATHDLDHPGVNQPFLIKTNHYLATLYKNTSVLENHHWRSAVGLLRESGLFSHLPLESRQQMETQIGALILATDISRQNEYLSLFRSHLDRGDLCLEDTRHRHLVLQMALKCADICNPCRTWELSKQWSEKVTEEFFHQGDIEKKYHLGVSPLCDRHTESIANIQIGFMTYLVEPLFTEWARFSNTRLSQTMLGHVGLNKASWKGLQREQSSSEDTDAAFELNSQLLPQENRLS
Protocol: as §1, §2, §3, §4, §5

PDE7(101-450) = biological target: T3, PDE7(101-450) (Homo sapiens, UniProt Q13946); details: PDE7(101-450)
T3 construct: made in house; host or cells: CHO (EcRCHO) cells, transient transfection; crude lysate supernatant
T3 sequence (Q13946 101-450): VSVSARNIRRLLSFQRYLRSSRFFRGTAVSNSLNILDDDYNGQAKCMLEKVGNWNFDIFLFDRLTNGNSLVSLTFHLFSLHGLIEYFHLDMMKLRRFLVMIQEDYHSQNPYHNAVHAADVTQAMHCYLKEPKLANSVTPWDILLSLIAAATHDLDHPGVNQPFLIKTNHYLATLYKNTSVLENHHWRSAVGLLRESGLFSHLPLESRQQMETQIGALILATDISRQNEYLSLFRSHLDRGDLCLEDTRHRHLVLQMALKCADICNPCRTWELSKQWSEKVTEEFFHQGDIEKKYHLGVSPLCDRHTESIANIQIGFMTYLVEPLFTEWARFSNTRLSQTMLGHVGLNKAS
Protocol: as §1, §2, §3, §4, §5

Measured: IC50

CC(C)Cn1c(=O)n(C)c(=O)c2[nH]cnc21 [IBMX, 3 isobutyl-1-methyl xanthine]
13 to 14 µM: all assays above
